Test results as given in publication PMC4559964, “Cytotoxicity of selected Cameroonian medicinal plants and Nauclea pobeguinii towards multi-factorial drug-resistant cancer cells” (BMC Complementary and Alternative Medicine, 2015).
Where two headings read alike, the source gives them in different places.

Legend:
[1] = test system: MDA-MB-231-BCRP clone 23 cells; assay: Resazurin reduction assay, cytotoxicity on MDA-MB231/BCRP; assay type: cell-based; settings: for IC50: MDA-MB-231/BCRP, 72 h, mean ± SD; for degree of resistance: ratio IC50 MDA-MB231/BCRP / IC50 MDA-MB231
Method: (§1) The cell lines used in the present work, their origins and their treatments were previously reported. […] Human wild-type HCT116 (p53^+/+) colon cancer cells as well as knockout clones HCT116 (p53^-/-) derived by homologous recombination were a generous gift from Dr. B. […] (Howard Hughes Medical Institute, Baltimore, MD). Human glioblastoma multiforme U87MG cells (non-transduced) and U87MG cell line transduced with an expression vector harboring an epidermal growth factor receptor (EGFR) gene with a genomic deletion of exons 2 through 7 (U87MG.ΔEGFR) were kindly provided by Dr. W. K. Cavenee (Ludwig Institute for Cancer Research, San Diego, CA). MDA-MB-231-BCRP, U87MG.ΔEGFR and HCT116 (p53^-/-) were maintained in DMEM medium containing 10 % FBS (Invitrogen) and 1 % penicillin (100 U/mL)-streptomycin (100 μg/mL) (Invitrogen) and were continuously treated with 800 ng/mL and 400 μg/mL geneticin, respectively. Normal AML12 heptocytes were obtained from the American Type Culture Collection (ATCC, USA). The above medium without geneticin was used to maintain MDA-MB-231, U87MG, HCT116 (p53^+/+) and AML12 cell lines. The cells were passaged twice weekly. All experiments were performed with cells in the logarithmic growth phase. […] Briefly, adherent cells at 1 × 10^4 cells were allowed to attach overnight and were then treated with different concentrations of the studied samples. For suspension cells, aliquots of 2 × 10^4 cells per well were seeded in 96-well-plates in a final volume of 200 μL. […] After 72 h incubation and resazurin (Sigma-Aldrich, Schnelldorf, Germany) staining, fluorescence was measured on an Infinite […]TM plate reader (Tecan, Crailsheim, Germany) using an excitation wavelength of 544 nm and an emission wavelength of 590 nm. Each assay was done at least two times, with six replicates each.

[2] = test system: normal AML12 hepatocytes; assay: Resazurin reduction assay, cytotoxicity on normal AML12 hepatocytes; assay type: cell-based; settings: Mus musculus, read-out: IC50 values of compounds / doxorubicin
Method: (§2) The cell lines used in the present work, their origins and their treatments were previously reported. They include drug-sensitive leukemia CCRF-CEM cells, its multidrug-resistant subline CEM/ADR5000 cells, breast cancer MDA-MB-231-pcDNA3 cells, its resistant subline MDA-MB-231-BCRP clone 23) cells, colon HCT116 (p53^+/+) cancer cells, its knockout clones HCT116 (p53^−/−), glioblastoma U87MG cells, its resistant subline U87MG.ΔEGFR cells and normal AML12 hepatocytes. […] Breast cancer cells, transduced with control vector (MDA-MB-231-pcDNA3) or with cDNA for the breast cancer resistance protein BCRP (MDA-MB-231-BCRP clone 23), were maintained under standard conditions as described above for CCRF-CEM cells. Human wild-type HCT116 (p53^+/+) colon cancer cells as well as knockout clones HCT116 (p53^−/−) derived by homologous recombination were a generous gift from Dr. B. Vogelstein and H. Hermeking (Howard Hughes Medical Institute, Baltimore, MD). Human glioblastoma multiforme U87MG cells (non-transduced) and U87MG cell line transduced with an expression vector harboring an epidermal growth factor receptor (EGFR) gene with a genomic deletion of exons 2 through 7 (U87MG.ΔEGFR) were kindly provided by Dr. W. K. Cavenee (Ludwig Institute for Cancer Research, San Diego, CA). MDA-MB-231-BCRP, U87MG.ΔEGFR and HCT116 (p53^−/−) were maintained in DMEM medium containing 10 % FBS (Invitrogen) and 1 % penicillin (100 U/mL)-streptomycin (100 μg/mL) (Invitrogen) and were continuously treated with 800 ng/mL and 400 μg/mL geneticin, respectively. Normal AML12 heptocytes were obtained from the American Type Culture Collection (ATCC, USA). The above medium without geneticin was used to maintain MDA-MB-231, U87MG, HCT116 (p53^+/+) and AML12 cell lines. The cells were passaged twice weekly. All experiments were performed with cells in the logarithmic growth phase.
(§3) The cytotoxicity of the tested samples was performed by resazurin reduction assay as we previously described. Briefly, adherent cells at 1 × 10^4 cells were allowed to attach overnight and were then treated with different concentrations of the studied samples. For suspension cells, aliquots of 2 × 10^4 cells per well were seeded in 96-well-plates in a final volume of 200 μL. […] After 72 h incubation and resazurin (Sigma-Aldrich, Schnelldorf, Germany) staining, fluorescence was measured on an Infinite M2000 Pro™ plate reader (Tecan, Crailsheim, Germany) using an excitation wavelength of 544 nm and an emission wavelength of 590 nm. Each assay was done at least two times, with six replicates each. IC50 values represent the sample concentration required to inhibit 50 % of cell proliferation and were calculated from a calibration curve by linear regression using Microsoft Excel.

[3] = test system: breast cancer MDA-MB-231-pcDNA3 cells; assay: Resazurin reduction assay, cytotoxicity on MDA-MB231; assay type: cell-based; settings: read-out: IC50 values of compounds / doxorubicin
Method: as §2, §3

[4] = test system: glioblastoma multiforme U87MG cells; assay: Resazurin reduction assay, cytotoxicity on U87MG; assay type: cell-based; settings: Homo sapiens, U-87 MG, 72 h, read-out: IC50 values of compounds / doxorubicin
Method: as §2, §3

[5] = test system: multidrug-resistant leukemia CEM/ADR5000 cells; assay: Resazurin reduction assay, cytotoxicity on CEM/ADR5000; assay type: cell-based; settings: for IC50: Homo sapiens, read-out: IC50 values of compounds / doxorubicin; for degree of resistance: ratio IC50 CEM/ADR5000 / IC50 CCRF-CEM
Method: as §2, §3

[6] = test system: U87MG.ΔEGFR cells; assay: Resazurin reduction assay, cytotoxicity on U87MG.ΔEGFR; assay type: cell-based, human; settings: for IC50: Homo sapiens, 72 h, read-out: IC50 values of compounds / doxorubicin; for degree of resistance: ratio IC50 U87MG.ΔEGFR / IC50 U87MG
Method: as §2, §3

[7] = test system: drug-sensitive leukemia CCRF-CEM cells; assay: Resazurin reduction assay, cytotoxicity on CCRF-CEM; assay type: cell-based; settings: Homo sapiens, 72 h, read-out: IC50 values of compounds / doxorubicin
Method: as §2, §3

[8] = test system: eight tested cancer cell lines; assay: Resazurin reduction assay, summary over the panel of tested cell lines; assay type: cell-based
Method: as §2, §3

[9] = test system: HCT116 (p53−/−) colon cancer cells; assay: Resazurin reduction assay, cytotoxicity on HCT116 (p53-/-); assay type: cell-based, human; settings: for IC50: Homo sapiens, read-out: IC50 values of compounds / doxorubicin; for degree of resistance: ratio IC50 HCT116 (p53−/−) / IC50 HCT116 (p53+/+)
Method: as §1

[10] = test system: HCT116 (p53+/+) colon cancer cells; assay: Resazurin reduction assay, cytotoxicity on HCT116 (p53+/+); assay type: cell-based; settings: Homo sapiens, read-out: IC50 values of compounds / doxorubicin
Method: as §2, §3

[11] = test system: leukemia CCRF-CEM cells; assay: Preliminary cytotoxicity study at a single concentration on CCRF-CEM; assay type: cell-based; settings: doxorubicin 10 μM, positive control
Method: Briefly, adherent cells at 1 × 10^4 cells were allowed to attach overnight and were then treated with different concentrations of the studied samples. For suspension cells, aliquots of 2 × 10^4 cells per well were seeded in 96-well-plates in a final volume of 200 μL. […] Each assay was done at least two times, with six replicates each.

[12] = MDA-MB231/BCRP, read-out: IC50 values of compounds / doxorubicin
[13] = Homo sapiens, MDA-MB-231, 72 h, MDA-MB231, 72 h, mean ± SD
[14] = all eight tested cancer cell lines, read-out: IC50 over all tested cell lines
[15] = HCT-116, HCT116 (p53−/−), 72 h, mean ± SD
[16] = HCT-116, HCT116 (p53+/+), 72 h, mean ± SD
[17] = read-out: IC50 values of compounds / doxorubicin, MDA-MB231/BCRP

Row | Structure (SMILES) | IC50 [1, 12] | IC50 ([2]; AML12 normal hepatocytes, 72 h) | IC50 [3, 13] | IC50 ([4]; U87MG, mean ± SD) | IC50 ([5]; CEM/ADR5000, 72 h, mean ± SD) | IC50 ([6]; U87MG.ΔEGFR, mean ± SD) | IC50 ([7]; mean ± SD) | IC50 [8, 14] | IC50 [9, 15] | IC50 [10, 16] | degree of resistance [5] | degree of resistance [6] | degree of resistance [9] | degree of resistance [1] | further results
1 | CC(=O)O[C@H]1CC[C@]2(C)[C@H]3C(=O)C=C4[C@@H]5[C@@H](C)[C@H](C)CC[C@]5(C)CC[C@@]4(C)[C@]3(C)CC[C@H]2C1(C)C [Compound 1, 3-acetoxy-11-oxo-urs-12-ene] | > 82.9 µM | > 82.9 µM | > 82.9 µM | > 82.9 µM | > 82.9 µM | > 82.9 µM | > 82.9 µM | > 82.9 µM | > 82.9 µM | > 82.9 µM | – | – | – | – | –
2 | O=C(O)/C=C/c1ccc(O)cc1 [Compound 2, p-coumaric acid] | – | > 244 µM | > 244 µM | > 244 µM | > 244 µM | > 244 µM | > 244 µM | > 244 µM | > 244 µM | > 244 µM | – | – | – | – | IC50 [1, 17]: > 244 µM
3 | COC(=O)CC(O)(CC(=O)OC)C(=O)OC [Compound 3, citric acid trimethyl ester] | > 171 µM | > 171 µM | > 171 µM | > 171 µM | > 171 µM | > 171 µM | > 171 µM | > 171 µM | > 171 µM | > 171 µM | – | – | – | – | –
4 | Oc1ccc(/C=C/c2cc(O)cc(O)c2)cc1 [Compound 4, resveratrol] | – | > 175 µM | < 23 µM | 76.6 ± 4.92 µM | 57.4 ± 3.67 µM | 28.4 ± 2.06 µM | 28.2 ± 1.32 µM | – | > 175 µM | 73.7 ± 5.67 µM | 2.04 | 0.37 | > 2.38 | – | IC50 ([3]; MDA-MB231, 72 h, mean ± SD): 19.9 ± 1.45 µM; IC50 ([8]; seven out of eight cell lines, read-out: IC50): < 175 µM
5 | OC[C@H]1O[C@@H](Oc2cc(O)cc(/C=C/c3ccc(O)cc3)c2)[C@H](O)[C@@H](O)[C@@H]1O [Compound 5, resveratrol β-D-glucopyranoside] | – | > 103 µM | 97.6 ± 7.6 µM | 55.6 ± 3.73 µM | 39.9 ± 2.91 µM | 47.6 ± 3.29 µM | 25.1 ± 2.48 µM | < 100 µM | 47 ± 4.94 µM | 63.8 ± 4.61 µM | 1.59 | 0.86 | 0.74 | 0.98 | IC50 [1, 17]: 95.6 ± 8.17 µM
6 | C=C[C@H]1[C@H](O[C@@H]2O[C@H](CO)[C@@H](O)[C@H](O)[C@H]2O)OC=C2C(=O)N3CCc4c([nH]c5ccccc45)[C@@H]3C[C@H]21 [Compound 6, strictosamide] | 78.3 ± 6.22 µM | – | – | – | – | – | – | – | – | – | > 1.04 | – | – | < 0.97 | IC50 ([2]; AML12, 72 h): > 80.3 µM; IC50 ([3]; Homo sapiens, MDA-MB-231, 72 h): > 80.3 µM; IC50 [4]: > 80.3 µM; IC50 ([5]; ADR5000, 72 h): > 80.3 µM; IC50 [6]: > 80.3 µM; IC50 [7]: 77.1 ± 5.87 µM; IC50 ([8]; read-out: IC50): < 80.3 µM; IC50 ([9]; HCT-116, 72 h): > 80.3 µM; IC50 ([10]; HCT-116, 72 h): > 80.3 µM
7 | COc1cccc2c1C(=O)c1c(O)c3c(c(O)c1C2=O)C[C@@](O)(C(=O)CO)C[C@@H]3O[C@H]1C[C@H](N)[C@H](O)[C@H](C)O1 [doxorubicin, Doxorubicin, reference compound] | – | > 73.6 µM | – | 1.06 ± 0.15 µM | – | 6.11 ± 0.57 µM | 0.2 ± 0.06 µM | – | – | – | 975.60 | 5.76 | 2.88 | 7.12 | IC50 ([3]; Homo sapiens, MDA-MB-231, MDA-MB231, 72 h, mean ± SD): 1.1 ± 0.28 µM; Growth percentage of CCRF-CEM leukemia cells [11]: 13.6%; IC50 ([9]; HCT-116, 72 h): 4.06 ± 0.07 µM; IC50 ([10]; HCT-116, 72 h): 1.41 ± 0.29 µM
